ChEMBL document CHEMBL4765356, “Synthesis and biological evaluation of thiophenylbenzofuran derivatives as potential P-glycoprotein inhibitors” (Eur J Med Chem, 2020)

Tests used:
[1] = Cytotoxicity against Flp-In-293 cells expressing human ABCB1 assessed as reduction in cell viability measured after 72 hrs by SRB assay; type: ADME, cell-based; conditions: Flp-In-293, 72 h
[2] = Cytotoxicity against human KB-VIN cells assessed as reduction in cell viability measured after 72 hrs by SRB assay; type: cell-based; conditions: KBVIN
HeLa = experiment: Cytotoxicity against human HeLa cells assessed as reduction in cell viability measured after 72 hrs by SRB assay; type: cell-based
[3] = Cytotoxicity against Flp-In-293 cells assessed as reduction in cell viability measured after 72 hrs by SRB assay; type: cell-based; conditions: Homo sapiens, Flp-In-293, 72 h

Measured: IC50

COc1ccc(CCN(C)CCCC(C#N)(c2ccc(OC)c(OC)c2)C(C)C)cc1OC (centres undefined)
> 50 µM: all assays above
